Experimental data taken from patent US20080132529A1, “Method of improving bioavailability for non-sedating barbiturates” (priority 2006, published 2008).
Several values for one entry are separate records, joined by “and”; a condition that tells them apart may be missing. Equal entries are not always repeated.

Experiments:
[1] = Phase I food-effect crossover pharmacokinetic study, single 400 mg oral dose of T2000 (DMMDPB), fasting vs fed; conditions: for Rate and extent of absorption when administered after a high fat, high calorie breakfast: fed vs fasting; for Rate and extent of absorption when administered after a high fat, high calorie breakfast / AUC(0-inf) / Cmax / half-life / Tmax / AUC0-t Ratio (Fasting/Fed) / T1/2 Ratio (Fasting/Fed) / Tmax Ratio (Fasting/Fed) / Cmax Ratio (Fasting/Fed) / AUC0-∞ Ratio (Fasting/Fed): single 400 mg oral dose of DMMDPB; for AUC(0-t) / AUC(0-inf) / Cmax / half-life / Tmax: male, human, plasma, po, 400 mg; for AUC(0-t): AUC0-t, plasma analyte after single 400 mg oral dose of DMMDPB; for AUC(0-t) / Cmax / Tmax / AUC0-t Ratio (Fasting/Fed) / Cmax Ratio (Fasting/Fed): n=23; for AUC(0-t) / AUC(0-inf): least-squares geometric mean; for AUC(0-inf): AUC0-∞; for AUC(0-inf) / half-life / AUC0-∞ Ratio (Fasting/Fed): n=18 for DMMDPB, n=20 for MMMDPB; for half-life / Tmax: arithmetic mean; for AUC0-t Ratio (Fasting/Fed): ratio fasting/fed of geometric means
Protocol: This was a single center, randomized, single dose, open-label, 2-way, food-effect crossover study to compare the rate and extent of absorption of T2000, administered as 4×100 mg capsules (for a total dose of 400 mg), under fasting and fed conditions. Subjects were confined to a clinical research facility from at least 11 hours prior to drug administration until after the 72.0-hour post-dose blood draw, in each period. Single oral doses were separated by a washout period of at least 21 days.
All subjects met the inclusion and exclusion criteria described in the protocol and were judged eligible for the study, based on medical history, demographic data (including sex, age, body weight [kg], height [cm], and BMI [kg/m2], medication history, physical examination, vital signs (blood pressure, respiratory rate, heart rate, and oral temperature), 12-lead ECG, brief neurological examination (including assessment of mental status, orientation, memory, arithmetic and spelling, eye movement, gait and coordination), opthalmology examination (lamp examination; performed within 3 months prior to the first dose), and clinical laboratory tests (hematology, biochemistry, urinalysis, HIV and hepatitis C [HCV] antibodies, and hepatitis B antigen [HBsAg]). […] Screening procedures took place within 28 days prior to Period 1 drug administration.
Subjects abstained from food or drink containing xanthine derivatives or xanthine-related compounds (e.g. coffee, tea, caffeine-containing sodas, colas, chocolate, or decaffeinated products) and energy drinks from 48 hours prior to drug administration, until the end of sample collection in each period; alcohol from 24 hours prior to drug administration, until the end of sample collection in each period, and grapefruit products (e.g. fresh, canned, or frozen); natural food supplements (including garlic as a supplement), and vitamins from 7 days prior to drug administration, until the end of sample collection in each period. Any subjects who felt dizzy or drowsy when they left the clinical facility were advised against performing activities requiring mental alertness, judgment, and physical coordination until they felt safe to do so.
Treatment A: The subjects fasted for at least 10 hours prior to drug administration.
Treatment B: After a supervised overnight fast of at least 10 hours, and 30 minutes before drug administration, subjects were served a standard high-fat, high-caloric breakfast of approximately 1000 calories (approximately 150 calories from protein, 250 calories from carbohydrates, and […]). […] Subjects were required to completely consume this breakfast within 30 minutes, and prior to drug administration. Subjects were dosed on the momrings of Apr. […] Subjects were administered the test or reference medication as a single oral dose of 4 capsules, each containing 100 mg of prodrug T2000 (total dose of 400 mg), with approximately 240 ml of water. Subjects were dosed as specified in the protocol, and subsequently fasted for a period of at least 4 hours. A mouth and hand check was performed to ensure the subjects had swallowed the study medication.
All blood samples were drawn into blood collection tubes (1×7 ml) containing EDTA K3 prior to drug administration and 0.500, 1.00, 2.00, 3.00, 4.00, 5.00, 6.00, 8.00, 10.0, 12.0, 15.0, 18.0, 24.0, 36.0, 48.0, 72.0, 96.0, and 120 hours post-dose in each period. All blood samples were collected via direct venipuncture.
Analysis of T-2000, MMMDPB and DPB were performed using High Performance Liquid Chromatographic Method with Tandem Mass. Spectrometry Detection. The analytical method was developed and validated.

[2] = Early pharmacokinetic studies in dogs, high fat meal vs customary dog food; type: in vivo
[3] = system: electroshock and chemoconvulsive seizures; conditions: animal studies; at doses which exhibited no neurological impairment; cited from earlier work
[4] = in vivo; cited from earlier work
[5] = Fed (high-fat breakfast 30 min before dose)

SMILES	Rate and extent of absorption when administered after a high fat, high calorie breakfast [1]	AUC(0-t) ([1]; Fasting, healthy subjects)	AUC(0-t) [1, 5]	AUC(0-inf) ([1]; Fasting)	AUC(0-inf) ([1]; Fed)	Cmax ([1]; Fasting)	Cmax ([1]; Fed)	half-life ([1]; T1/2, Fasting)	half-life ([1]; T1/2, Fed)	Tmax ([1]; Fasting)	Tmax ([1]; Fed)	AUC0-t Ratio (Fasting/Fed) [1]	T1/2 Ratio (Fasting/Fed) [1]	Tmax Ratio (Fasting/Fed) [1]	Cmax Ratio (Fasting/Fed) [1]	AUC0-∞ Ratio (Fasting/Fed) [1]	Anticonvulsant activity against electroshock and chemoconvulsive seizures [3]	other results
COCN1C(=O)N(COC)C(=O)C(c2ccccc2)(c2ccccc2)C1=O [DMMDPB, 1,3-dimethoxymethyl-5,5-diphenyl barbituric acid]	increased	3100 ng·h/mL	8710 ng·h/mL	5320 ng·h/mL	10800 ng·h/mL	129 ng/mL	887 ng/mL	26.1 h	18.5 h	7.52 h	4.88 h	35.6% and 35.57%	141.55%	154.34%	14.6% and 14.58%	49.46%	anticonvulsant properties	Adverse events reported (total) ([1]; minor, occurred in both fed and fasting conditions, 23 subjects, single 400 mg oral doses): 35; Tolerability ([1]; single 400 mg oral dose, fed and fasting, healthy males): well tolerated; Absorption with a high fat meal compared with customary dog food [2]: more completely absorbed
O=C1NC(=O)C(c2ccccc2)(c2ccccc2)C(=O)N1 [DPB, 5,5-diphenyl barbituric acid]	increased	143000 ng·h/mL	219000 ng·h/mL	185000 ng·h/mL	271000 ng·h/mL	1750 ng/mL	2790 ng/mL	43 h	38.5 h	54.8 h	48.3 h	65.3% and 65.28%	111.62%	113.50%	62.9% and 62.93%	68.04%	anticonvulsant properties	
COCN1C(=O)NC(=O)C(c2ccccc2)(c2ccccc2)C1=O [MMMDPB, monomethoxymethyl-5,5-diphenyl barbituric acid]	increased	36400 ng·h/mL	99500 ng·h/mL	54000 ng·h/mL	120000 ng·h/mL	898 ng/mL	2820 ng/mL	26.8 h	16.2 h	20.2 h	8.83 h	36.6% and 36.56%	165.33%	229.02%	31.9% and 31.86%	44.86%		
CCC1(c2ccccc2)C(=O)NC(=O)NC1=O [phenobarbital]																		Serum and brain levels on administration with food [4]: significantly decreased
